# According to patent publication US20240066135A1, “DRUG CONJUGATES AND USES THEREOF” (SUPERTRANS MEDICAL LTD, priority 2020, published 2024):
# Like-named read-outs stand apart in the source and are kept apart here.
# Assays:
# HepG2 cell cytotoxicity = assay type: cell-based; details: human, HepG2 cells; FBS-deficient media
# E. coli UTI89 = assay: 24 h thigh muscle infection model in neutropenic mice; assay type: in vivo, CD-1 mice
# Experimental: FIG. 4 illustrates the efficacy of V-r in reducing E. coli UTI89 bacterial burden in a 24 h thigh muscle infection model in neutropenic CD-1 mice.
# In a 24 h thigh muscle infection model, E. coli UTI89 was inoculated at 7.8×10^4 CFU into one thigh muscle per mouse (n=5-8/group) and treated with V-r (total dose of […]) using a q6h dosing regimen from 1 h post-infection. […] Overall, V-r caused a ˜4 to 7.5 log10 reduction in bacterial burden, as compared to vehicle control, over the entire dose range.
# [1] = for Cl / Vd: CD-1 mice
# [2] = Single SC administration tolerability; assay type: in vivo; details: highest dose tested (800 mg/kg), male CD-1 mice
# in vivo [3] = details: male, CD-1, mouse, plasma, sc
# GPB = assay: MIC testing, GPB; assay type: cell-based; details: FIG. 2
# Experimental: (§1) Susceptibility testing was performed based on Clinical and Laboratory Standards Institute (CLSI) guidelines M07-A11 and M100-S29. All bacterial strains were recovered from long-term storage (−80° C.) and cultured on nutrient agar (NA) at 37° C. under aerobic conditions for approximately 20 h, except E. coli ATCC BAA-2469 that was recovered from long-term storage on nutrient agar before further passaging onto nutrient agar+25 μg/mL imipenem (according to ATCC guidelines). Minimum inhibitory concentration (MIC) assays were performed in BD non cation adjusted Mueller-Hinton broth (MHB) in 96-well flat-bottomed polystyrene plates (Corning #3370). Test articles and comparator antibiotics were prepared in sterile water to a concentration of 5.12 mg/mL. For each antibiotic stock, 2× top concentrations of test compounds and comparators were prepared in the appropriate growth medium and added to well 1 of a 96-well plate. Serial 1:1 dilutions were performed from columns 1-11 (changing tips at each dilution step); column 12 served as a positive (growth) control. A negative (sterility) control was set up in available spare wells. A suspension of each strain was prepared in sterile phosphate-buffered saline (PBS) to a density equivalent to a 0.5 McFarland standard. […]
# (§2) MICs were determined using standard methodologies as previously described. […]
# E. coli ATCC 25922 [4] = assay: 9 h thigh muscle infection model in neutropenic mice; assay type: in vivo, CD-1 mice
# Experimental: Using a screening-based strategy, preliminary proof-of-concept studies with V-r employed an abbreviated 9 h thigh muscle infection model in male CD-1 mice rendered neutropenic. To that end, E. coli ATCC 25922 was inoculated at 9.7×10^4 CFUs into both thigh muscles per mouse (n=5 per experimental group). V-r was administered q2h SC (110-880 mg/kg total dose) starting 1 h post-infection. At 9 h, thigh homogenates were prepared and CFUs were enumerated following culture on CLED agar.
# Red blood cell lysis = assay type: cell-based; details: human, human erythrocytes; FBS-deficient media
# [5] = system: E. coli UNT057-1 (CTX-M-15); assay: Complicated urinary tract infection (cUTI) model
# Experimental: Female C3H/Hej mice were placed on a 5% glucose water starting 6 days prior to infection and then for the remainder of the study. The complicated urinary tract infection (cUTI) model was established via trans-urethral injection of the bacterial inoculum. Mice were anesthetized with Ketamine HCL at 40 mg/kg body weight and Xylazine at 6 mg/kg body weight in 0.15 ml PBS injected intra-peritoneally. Using a dissection scope (10×), the urethral orifice was located and a tapered PE10 catheter (attached to MRE40 tubing and a 23 G blunt hub syringe) was inserted and 0.05 ml of the prepared inoculum slowly injected. […] E. coli UNT057-1 (CTX-M-15) strain was used for the cUTI model and inoculum grown in Tryptic soy broth (TSB) to 1.0×10^10 CFU/ml suspension. […] A positive control of meropenem was given at 300 mg/kg q12h by sub-cutaneous administration for a total of 3 days. All treatment groups consisted of 10 animals with CFU (kidneys, bladder and urine) bacterial counts at 7 days post-infection used as the endpoint for efficacy. At 7 days post-infection, urine was collected from mice into 1.5 ml sterile tubes and then mice were euthanized. Kidneys and bladders were homogenized, and the homogenates and urine were serially diluted in 1×PBS and plated onto Brain heart infusion and 0.5% charcoal agar. Agar plates were incubated at 37° C., and colony counts were recorded the following day.
# [6] = Plasma protein binding, human; assay type: in vitro ADME; details: read-out: PPB, % bound, human (converted)
# [7] = for AUC: mice
# [8] = hRPTEC biomarkers cytotoxicity screen; assay type: cell-based; details: human, human renal proximal tubular epithelial cells (hRPTEC); cell count, nuclear size, DNA structure, mitochondrial mass and membrane potential, phospholipidosis, glutathione content
# [9] = Thermodynamic solubility in saline; assay type: physicochemical; details: saline or isotonic, thermodynamic from solid; read-out: TD solubility in saline
# LogD (Octanol/buffer) = assay type: physicochemical
# [10] = PK profiles in mice, IV vs SC administration; assay type: in vivo; details: IV 10 mg/kg, SC 20 mg/kg
# Description: FIG. 11 illustrates the feasibility of adaptation of V-r as a low-dose therapy to treat E. coli-associated cUTIs via sub-cutaneous administration.
# Adaptation of V-r as a low-dose therapy to treat E. coli-associated cUTIs via sub-cutaneous administration was further investigated. Vancomycin can only be given by IV infusion therapy to treat systemic infections. Due to the very low dose therapy of V-r, additional modes of administration of the drug can be pursued besides IV administration pending retention of high bioavailability. In mice, the exposure of V-r (measured by the AUC) following sub-cutaneous administration was essentially 100% of that afforded by IV administration (see FIG. 11). […] Such a finding is critically important for hospitalized cUTIs (and other infections) whereby the SC route might offer a “go-home sooner” of patients and thus early discharge from the hospital for continued low dose V-r therapy from outpatient departments or within the clinical community settings. Such an approach facilitates the practice of prudent antimicrobial stewardship.
# E. coli ATCC 25922 [11] = assay type: cell-based
# A. baumannii = assay: MIC testing, A. baumannii; assay type: cell-based; details: Acinetobacter baumannii
# Experimental: as §1, §2
# in vivo [12] = details: beagle, dog, iv, 25 mg/kg
# E. coli = assay: MIC testing, E. coli; assay type: cell-based
# Experimental: Susceptibility testing was performed based on Clinical and Laboratory Standards Institute (CLSI) guidelines M07-A11 and M100-S29. All bacterial strains were recovered from long-term storage (−80° C.) and cultured on nutrient agar (NA) at 37° C. under aerobic conditions for approximately 20 h, except E. coli ATCC BAA-2469 that was recovered from long-term storage on nutrient agar before further passaging onto nutrient agar+25 μg/mL imipenem (according to ATCC guidelines). Minimum inhibitory concentration (MIC) assays were performed in BD non cation adjusted Mueller-Hinton broth (MHB) in 96-well flat-bottomed polystyrene plates (Corning #3370). Test articles and comparator antibiotics were prepared in sterile water to a concentration of 5.12 mg/mL. For each antibiotic stock, 2× top concentrations of test compounds and comparators were prepared in the appropriate growth medium and added to well 1 of a 96-well plate. Serial 1:1 dilutions were performed from columns 1-11 (changing tips at each dilution step); column 12 served as a positive (growth) control. A negative (sterility) control was set up in available spare wells. A suspension of each strain was prepared in sterile phosphate-buffered saline (PBS) to a density equivalent to a 0.5 McFarland standard. Bacterial suspensions were then diluted 1:150 in the appropriate medium and used to inoculate assay plates (columns 1 through 11) to provide a starting inoculum of ˜2 to 8×10^5 CFU/mL. […] The MIC was defined as the lowest concentration of test articles resulting in complete inhibition of visible growth.
# MICs were determined using standard methodologies as previously described. […] Time-kill assays were performed against uropathogenic E. coli strains, including the sequence type 131 (ST131) NCTC-13341 isolate.
# [13] = Plasma protein binding, mouse; assay type: in vitro ADME; details: read-out: PPB, % bound, mouse
# MRSA infections = details: 150 mg/kg in rats, 100 mg/kg in dogs, 15 mg/kg in humans; cited from earlier work
# [14] = total dose over 24 h 200 mg/kg, q6h
# [15] = total dose over 24 h 1050 mg/kg
# [16] = total dose over 24 h 1400 mg/kg
# [17] = total dose over 9 h 110 mg/kg, q2h SC
# [18] = total dose over 24 h 1272 mg/kg
compound,measurement,setting,value
"CN[C@H](CC(C)C)C(=O)N[C@H]1C(=O)N[C@@H](CC(N)=O)C(=O)N[C@H]2C(=O)N[C@H]3C(=O)N[C@H](C(=O)N[C@H](C(=O)N[C@H](CCCNC(=N)N)C(N)=O)c4cc(O)cc(O)c4-c4cc3ccc4O)[C@H](O)c3ccc(c(Cl)c3)Oc3cc2cc(c3O[C@@H]2O[C@H](CO)[C@@H](O)[C@H](O)[C@H]2O[C@H]2C[C@](C)(N)[C@H](O)[C@H](C)O2)Oc2ccc(cc2Cl)[C@H]1O [V-r, vancomycin-D-arginine]",CC50,HepG2 cell cytotoxicity,> 750 µM
same,reduction of burden below stasis,E. coli UTI89; all doses higher than 200 mg/kg,up to 2.7 log10 CFU/g
same,total 24 h dose reducing E. coli burden to pre-treatment (stasis) levels,E. coli UTI89; static dose,250 mg/kg
same,reduction of E. coli burden,E. coli UTI89; thigh muscle model,> 7 log10 CFU/g
same,Log10 Group Geometric mean (CFU/g) ± SD,E. coli UTI89; [14],5.60 ± 2.28 Log10 CFU/g
same,Log10 change from vehicle (CFU/g),E. coli UTI89; [14],−4.11 Log10 CFU/g
same,Log10 Group Geometric mean (CFU/g) ± SD,E. coli UTI89; total dose over 24 h 400 mg/kg,3.27 ± 1.88 Log10 CFU/g
same,Log10 change from vehicle (CFU/g),E. coli UTI89; total dose over 24 h 400 mg/kg,−6.43 Log10 CFU/g
same,Log10 Group Geometric mean (CFU/g) ± SD,E. coli UTI89; total dose over 24 h 700 mg/kg,2.58 ± 0.25 Log10 CFU/g
same,Log10 change from vehicle (CFU/g),E. coli UTI89; total dose over 24 h 700 mg/kg,−7.13 Log10 CFU/g
same,Log10 Group Geometric mean (CFU/g) ± SD,E. coli UTI89; [15],2.08 ± 0.89 Log10 CFU/g
same,Log10 change from vehicle (CFU/g),E. coli UTI89; [15],−7.63 Log10 CFU/g
same,Log10 Group Geometric mean (CFU/g) ± SD,E. coli UTI89; [16],2.68 ± 1.38 Log10 CFU/g
same,Log10 change from vehicle (CFU/g),E. coli UTI89; [16],−7.03 Log10 CFU/g
same,Cl,[1]; SC 20 mg/kg,7.8 mL/min/kg
same,Vd,[1]; SC 20 mg/kg,0.59 L/kg
same,Cl,[1]; SC 121 mg/kg,5.4 mL/min/kg
same,Vd,[1]; SC 121 mg/kg,0.60 L/kg
same,elimination kinetics,[1]; SC administration,first-order elimination
same,tolerability of a single SC administration,[2],well tolerated
same,AUC,in vivo [3]; 20 mg/kg,42.7 µg·h/mL
same,Cmax,in vivo [3]; 20 mg/kg,20.4 µg/mL
same,half-life,in vivo [3]; 20 mg/kg,0.87 h
same,AUC,in vivo [3]; 121 mg/kg,366 µg·h/mL
same,Cmax,in vivo [3]; 121 mg/kg,98.4 µg/mL
same,half-life,in vivo [3]; 121 mg/kg,1.29 h
same,antimicrobial potency towards a number of GPB,GPB,remained intact
same,reduction below stasis,E. coli ATCC 25922 [4]; 440 mg/kg,1.0 log10
same,reduction below stasis,E. coli ATCC 25922 [4]; 880 mg/kg,1.3 log10
same,extrapolated static dose,"E. coli ATCC 25922 [4]; 9 h model, total dose",215 mg/kg
same,Log10 Group Geometric mean (CFU/g) ± SD,E. coli ATCC 25922 [4]; [17],5.87 ± 0.60 Log10 CFU/g
same,Log10 change from vehicle (CFU/g),E. coli ATCC 25922 [4]; [17],−1.24 Log10 CFU/g
same,Log10 Group Geometric mean (CFU/g) ± SD,E. coli ATCC 25922 [4]; total dose over 9 h 440 mg/kg,4.14 ± 0.63 Log10 CFU/g
same,Log10 change from vehicle (CFU/g),E. coli ATCC 25922 [4]; total dose over 9 h 440 mg/kg,−2.97 Log10 CFU/g
same,Log10 Group Geometric mean (CFU/g) ± SD,E. coli ATCC 25922 [4]; total dose over 9 h 880 mg/kg,3.76 ± 0.40 Log10 CFU/g
same,Log10 change from vehicle (CFU/g),E. coli ATCC 25922 [4]; total dose over 9 h 880 mg/kg,−3.35 Log10 CFU/g
same,CC50,Red blood cell lysis,> 750 µM
same,"q12h dose with maximal abrogation of bacterial burden, bladder","[5]; bladder, q12h for 3 days",25 mg/kg
same,required daily 24 h dose to cause maximal reductions in bacterial burden,[5]; kidney,100 mg/kg
same,"q12h dose with maximal abrogation of bacterial burden, kidney","[5]; kidney, q12h for 3 days",50 mg/kg
same,required daily 24 h dose to cause maximal reductions in bacterial burden,[5]; urine and bladder,50 mg/kg
same,"q12h dose with maximal abrogation of bacterial burden, urine","[5]; urine, q12h for 3 days",25 mg/kg
same,fraction unbound,[6],0.24
same,AUC,"[7]; single IV 25 mg/kg, 25 mg/kg",43.27 µg·h/mL
same,AUC,"[7]; single IV 50 mg/kg, 50 mg/kg",103.64 µg·h/mL
same,PK profile,[7]; single IV 1-50 mg/kg,linear
same,CC50,[8],> 100 µM
same,solubility,[9],373 mg/mL
same,logD,LogD (Octanol/buffer),< -4.01
same,exposure following sub-cutaneous vs IV administration,[10],essentially equivalent
same,FOR (at 8 × MIC),E. coli ATCC 25922 [11],<2.32 × 10^−10
same,MIC,A. baumannii,8 µg/mL
same,AUC,in vivo [12],580 µg·h/mL
same,MIC range,E. coli,8 to 16 µg/mL
same,MIC,E. coli; Escherichia coli,8 µg/mL
same,MIC90,E. coli; Escherichia coli,16 µg/mL
"CN[C@H](CC(C)C)C(=O)N[C@H]1C(=O)N[C@@H](CC(N)=O)C(=O)N[C@H]2C(=O)N[C@H]3C(=O)N[C@H](C(=O)N[C@H](C(=O)O)c4cc(O)cc(O)c4-c4cc3ccc4O)[C@H](O)c3ccc(c(Cl)c3)Oc3cc2cc(c3O[C@@H]2O[C@H](CO)[C@@H](O)[C@H](O)[C@H]2O[C@H]2C[C@](C)(N)[C@H](O)[C@H](C)O2)Oc2ccc(cc2Cl)[C@H]1O [Vancomycin, vancomycin, reference compound]",CC50,HepG2 cell cytotoxicity,> 750 µM
same,Log10 Group Geometric mean (CFU/g) ± SD,E. coli UTI89; [18],8.48 ± 1.31 Log10 CFU/g
same,Log10 change from vehicle (CFU/g),E. coli UTI89; [18],−1.23 Log10 CFU/g
same,impact on E. coli burden,E. coli ATCC 25922 [4]; dose equivalent to the highest dose of V-r,failed to significantly impact E. coli burden
same,Log10 Group Geometric mean (CFU/g) ± SD,E. coli ATCC 25922 [4]; total dose over 9 h 800 mg/kg,6.60 ± 0.66 Log10 CFU/g
same,Log10 change from vehicle (CFU/g),E. coli ATCC 25922 [4]; total dose over 9 h 800 mg/kg,−0.51 Log10 CFU/g
same,CC50,Red blood cell lysis,> 750 µM
same,fraction unbound,[6],0.5
same,CC50,[8],> 100 µM
same,solubility,[9],> 50 mg/mL
same,fraction unbound,[13],0.5
same,MIC,A. baumannii; read-out: MICs,64 to 256 µg/mL
same,target AUC in the treatment of MRSA infections,MRSA infections,approximately 400 mg·h/l
same,MIC,"E. coli; Escherichia coli, read-out: MICs",64 to 256 µg/mL
